Patent US8247211B2, “Glycopeptide antibiotics” (American Cyanamid Company, priority 2001, dated 2012)
Converted amounts (≈) assume the structure as drawn.

How the values were obtained:
[1] = tested on: Staphylococcus aureus-SMITH (GC 4543); assay: Acute lethal infection in mice (ED50); format: in vivo; conditions: female CD-1 mice, intraperitoneal challenge, intravenous dose 30 min. after infection, 7 day survival ratios
Method in brief: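 ED50 derived from pooled 7-day survival in three separate experiments, five mice per dose level. Single intravenous dose 30 min after intraperitoneal infection of female CD-1 mice with enough bacteria to kill untreated animals in 24-48 h.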

Streptococcus sp. = assay: In vitro antibacterial evaluation: minimum inhibitory concentration (MIC), broth dilution method; format: cell-based
Method in brief: (§1)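 Susceptibility determined by NCCLS-recommended broth dilution (M7-A2), Muller-Hinton II […]. Concentration span 64-0.06 μg/mL, inoculum 5×10^5 CFU/mL. Isolates include strains resistant to methicillin, penicillin and/or vancomycin.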

Escherichia coli = assay: as above; format: cell-based
Method in brief: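 Broth dilution per NCCLS M7-A2 in Muller-Hinton II […], inoculum 5×10^5 CFU/mL, antibiotic tested over 64-0.06 μg/mL. MIC is taken as the lowest concentration that inhibits growth. Panel includes recent clinical isolates resistant to methicillin, penicillin and/or vancomycin.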

Enterococcus sp. = assay: as above; format: cell-based
Method in brief: as §1

Staphylococcus sp. = assay: as above; format: cell-based; conditions: broth dilution, 18 hours at 35° C.
Method in brief: as §1

[2] = broth dilution, inoculum 5×10^5 CFU/mL, 18 hours at 35° C.

CC(c1ccccc1)C1NC(=O)CNC(=O)C(CO)NC(=O)C(C(O)C2CNC(=N)N2C2OC(CO)C(O)C(O)C2O)NC(=O)C(C(O)C2CNC(=N)N2)NC(=O)C(Cc2ccc(OC3OC(CO)C(OC4OC5COC(c6cc7c(cc6Cl)OCO7)OC5C(O)C4O)C(O)C3O)cc2)NC1=O (stereo not drawn) [Example 158, Cyclo[glycyl-β-methylphenylalanyl-O-[4-O-[4,6-O-[(6-chloro-1,3-benzodioxol-5-yl)-methylene]hexopyranosyl]hexopyranosyl]tyrosyl-3-(2-iminoimidazolidin-4-yl)seryl-3-(3-hexopyranosyl-2-iminoimidazolidin-4-yl)serylseryl]]
median effective dose (ED50), Staphylococcus aureus-SMITH (GC 4543) [1]: 0.14 mg/kg
MIC Streptococcus pneumoniae (ATCC 6301) (Streptococcus sp.; strain ATCC 6301): 0.12 µg/mL (≈ 0.0821 µM)
MIC Streptococcus pneumoniae (GC 1894) (Streptococcus sp.; strain GC 1894): <0.06 µg/mL
MIC Streptococcus pyogenes (GC 4563) (Streptococcus sp.; strain GC 4563): 0.25 µg/mL (≈ 0.171 µM)
MIC Streptococcus agalactiae (GC 4564) (Streptococcus sp.; strain GC 4564): 0.25 µg/mL (≈ 0.171 µM)
MIC Streptococcus pneumoniae (GC 4565) (Streptococcus sp.; strain GC 4565): <0.06 µg/mL
MIC Escherichia coli (ATCC 25922) (Escherichia coli; strain ATCC 25922): 64 µg/mL (≈ 43.8 µM)
MIC Escherichia coli (GC 4559) (Escherichia coli; strain GC 4559): 64 µg/mL (≈ 43.8 µM)
MIC Escherichi coli (GC 4560) (Escherichia coli; strain GC 4560): 1 µg/mL (≈ 0.684 µM)
MIC Enterococcus avium (GC 4558) (Enterococcus sp.; [2]): 4 µg/mL (≈ 2.74 µM)
MIC Enterococcus faecalis (ATCC 29212) (Enterococcus sp.; [2]): 4 µg/mL (≈ 2.74 µM)
MIC Enterococcus faecalis (GC 4552) (Enterococcus sp.; [2]): 8 µg/mL (≈ 5.47 µM)
MIC Enterococcus faecalis (GC 4553) (Enterococcus sp.; [2]): 4 µg/mL (≈ 2.74 µM)
MIC Enterococcus faecalis (GC 4554) (Enterococcus sp.; [2]): 4 µg/mL (≈ 2.74 µM)
MIC Enterococcus faecalis (GC 6189) (Enterococcus sp.; [2]): 4 µg/mL (≈ 2.74 µM)
MIC Enterococcus faecium (GC 2243) (Enterococcus sp.; [2]): 4 µg/mL (≈ 2.74 µM)
MIC Enterococcus faecium (GC 4556) (Enterococcus sp.; [2]): 8 µg/mL (≈ 5.47 µM)
MIC Enterococcus faecium (GC 4557) (Enterococcus sp.; [2]): 2 µg/mL (≈ 1.37 µM)
MIC Enterococcus faecalis (ATCC 29212) (Enterococcus sp.; strain ATCC 29212): 4 µg/mL (≈ 2.74 µM)
MIC Enterococcus faecalis (GC 2242) (Enterococcus sp.; strain GC 2242): 4 µg/mL (≈ 2.74 µM)
MIC Enterococcus faecium (GC 2243) (Enterococcus sp.; strain GC 2243): 4 µg/mL (≈ 2.74 µM)
MIC Enterococcus faecalis (GC 2691) (Enterococcus sp.; strain GC 2691): 4 µg/mL (≈ 2.74 µM)
MIC Enterococcus faecalis (GC 3059) (Enterococcus sp.; strain GC 3059): 4 µg/mL (≈ 2.74 µM)
MIC Enterococcus faecalis (GC 4552) (Enterococcus sp.; strain GC 4552): 8 µg/mL (≈ 5.47 µM)
MIC Enterococcus faecalis (GC 4553) (Enterococcus sp.; strain GC 4553): 4 µg/mL (≈ 2.74 µM)
MIC Enterococcus faecalis (GC 4554) (Enterococcus sp.; strain GC 4554): 4 µg/mL (≈ 2.74 µM)
MIC Enterococcus faecium (GC 4556) (Enterococcus sp.; strain GC 4556): 8 µg/mL (≈ 5.47 µM)
MIC Enterococcus faecium (GC 4557) (Enterococcus sp.; strain GC 4557): 2 µg/mL (≈ 1.37 µM)
MIC Enterococcus avium (GC 4558) (Enterococcus sp.; strain GC 4558): 4 µg/mL (≈ 2.74 µM)
MIC Enterococcus faecalis (GC 6189) (Enterococcus sp.; strain GC 6189): 4 µg/mL (≈ 2.74 µM)
MIC Coagulase Negative Staphylococcus (GC 4547) (Staphylococcus sp.; 5×10^5 CFU/mL): 2 µg/mL (≈ 1.37 µM)
MIC Coagulase Negative Staphylococcus (GC 4548) (Staphylococcus sp.; 5×10^5 CFU/mL): 1 µg/mL (≈ 0.684 µM)
MIC Coagulase Negative Staphylococcus (GC 4549) (Staphylococcus sp.; 5×10^5 CFU/mL): 1 µg/mL (≈ 0.684 µM)
MIC Coagulase Negative Staphylococcus (GC 4551) (Staphylococcus sp.; 5×10^5 CFU/mL): 2 µg/mL (≈ 1.37 µM)
MIC Coagulase Negative Staphylococcus (GC 6257) (Staphylococcus sp.; 5×10^5 CFU/mL): 1 µg/mL (≈ 0.684 µM)
MIC Staphylococcus aureus (ATCC 29213) (Staphylococcus sp.; 5×10^5 CFU/mL): 2 µg/mL (≈ 1.37 µM)
MIC Staphylococcus aureus (GC 1131) (Staphylococcus sp.; 5×10^5 CFU/mL): 2 µg/mL (≈ 1.37 µM)
MIC Staphylococcus aureus (GC 3051) (Staphylococcus sp.; 5×10^5 CFU/mL): 1 µg/mL (≈ 0.684 µM)
MIC Staphylococcus aureus (GC 3053) (Staphylococcus sp.; 5×10^5 CFU/mL): 2 µg/mL (≈ 1.37 µM)
MIC Staphylococcus aureus (GC 4541) (Staphylococcus sp.; 5×10^5 CFU/mL): 1 µg/mL (≈ 0.684 µM)
MIC Staphylococcus aureus (GC 4542) (Staphylococcus sp.; 5×10^5 CFU/mL): 1 µg/mL (≈ 0.684 µM)
MIC Staphylococcus aureus (GC 4544) (Staphylococcus sp.; 5×10^5 CFU/mL): 2 µg/mL (≈ 1.37 µM)
MIC Staphylococcus aureus (GC 4545) (Staphylococcus sp.; 5×10^5 CFU/mL): 2 µg/mL (≈ 1.37 µM)
MIC Staphylococcus aureus-SMITH (GC 4543) (Staphylococcus sp.; 5×10^5 CFU/mL): 2 µg/mL (≈ 1.37 µM)
MIC Staphylococcus haemolyticus (GC 4546) (Staphylococcus sp.; 5×10^5 CFU/mL): 0.5 µg/mL (≈ 0.342 µM)
MIC Staphylococcus aureus (ATCC 29213) (Staphylococcus sp.; strain ATCC 29213): 2 µg/mL (≈ 1.37 µM)
MIC Staphylococcus aureus (GC 1131) (Staphylococcus sp.; strain GC 1131): 2 µg/mL (≈ 1.37 µM)
MIC Staphylococcus aureus (GC 3051) (Staphylococcus sp.; strain GC 3051): 1 µg/mL (≈ 0.684 µM)
MIC Staphylococcus aureus (GC 3053) (Staphylococcus sp.; strain GC 3053): 2 µg/mL (≈ 1.37 µM)
MIC Staphylococcus aureus (GC 4541) (Staphylococcus sp.; strain GC 4541): 1 µg/mL (≈ 0.684 µM)
MIC Staphylococcus aureus (GC 4542) (Staphylococcus sp.; strain GC 4542): 1 µg/mL (≈ 0.684 µM)
MIC Staphylococcus aureus-SMITH (GC 4543) (Staphylococcus sp.; strain GC 4543): 2 µg/mL (≈ 1.37 µM)
MIC Staphylococcus aureus (GC 4544) (Staphylococcus sp.; strain GC 4544): 2 µg/mL (≈ 1.37 µM)
MIC Staphylococcus aureus (GC 4545) (Staphylococcus sp.; strain GC 4545): 2 µg/mL (≈ 1.37 µM)
MIC Staphylococcus haemolyticus (GC 4546) (Staphylococcus sp.; strain GC 4546): 0.5 µg/mL (≈ 0.342 µM)
MIC Coagulase Negative Staphylococcus (GC 4547) (Staphylococcus sp.; strain GC 4547): 2 µg/mL (≈ 1.37 µM)
MIC Coagulase Negative Staphylococcus (GC 4548) (Staphylococcus sp.; strain GC 4548): 1 µg/mL (≈ 0.684 µM)
MIC Coagulase Negative Staphylococcus (GC 4549) (Staphylococcus sp.; strain GC 4549): 1 µg/mL (≈ 0.684 µM)
MIC Coagulase Negative Staphylococcus (GC 4551) (Staphylococcus sp.; strain GC 4551): 2 µg/mL (≈ 1.37 µM)
MIC Coagulase Negative Staphylococcus (GC 6257) (Staphylococcus sp.; strain GC 6257): 1 µg/mL (≈ 0.684 µM)
